Measured values: patent US20230131402A1, “SPIRO-LACTAM NMDA RECEPTOR MODULATORS AND USES THEREOF” (Aptinyx Inc., priority 2016, published 2023)
Read-outs that look alike come from different tables or passages of the source.

Assays:
[1] = Oral pharmacokinetics (plasma, brain, CSF); details: rat, per os, 10 mg/kg
Method: (§6) Plasma, brain, and CSF samples were analyzed at various time points over a 24 hour period.

NMDAR2D = biological target: T1, NMDAR2D (Homo sapiens, UniProt O15399); experiment: [3H]MK-801 binding, NMDAR2D expressing HEK cell membranes; assay type: biochemical; details: 50 μM glutamate
T1 construct: expressed in transfected cells; host or cells: HEK cells (membrane extract)
Method: (§1) Assays were conducted as described by Moskal et al., “GLYX-13: a monoclonal antibody-derived peptide that acts as an N-methyl-D-aspartate receptor modulator,” Neuropharmacology, 49, 1077-87, 2005. These studies were designed to determine if the test compounds act to facilitate NMDAR activation in NMDAR2A, NMDAR2B, NMDAR2C or NMDAR2D expressing HEK cell membranes as measured by increases in [^3H]MK-801 binding.
(§2) In the assay, 300 μg of NMDAR expressing HEK cell membrane extract protein was preincubated for 15 minutes at 25° C. in the presence of saturating concentrations of glutamate (50 μM) and varying concentrations of test compound (1×10^−15M−1×10^−7M), or 1 mM glycine. Following the addition of 0.3 μCi of [^3H]MK-801 (22.5 Ci/mmol), reactions were again incubated for 15 minutes at 25° C. (nonequilibrium conditions). Bound and free [^3H]MK-801 were separated via rapid filtration using a Brandel apparatus.
(§3) In analyzing the data, the DPM (disintegrations per minute) of [^3H]MK-801 remaining on the filter were measured for each concentration of test compound or for 1 mM glycine. The DPM values for each concentration of a ligand (N=2) were averaged. The baseline value was determined from the best fit curve of the DPM values modeled using the GraphPad program and the log(agonist) vs. response(three parameters) algorithm was then subtracted from all points in the dataset. The % maximal [^3H]MK-801 binding was then calculated relative to that of 1 mM glycine: all baseline subtracted DPM values were divided by the average value for 1 mM glycine. The EC50 and % maximal activity were then obtained from the best fit curve of the % maximal [^3H]MK-801 binding data modelled using the GraphPad program and the log(agonist) vs. response(three parameters) algorithm.
(§4) The tables below summarize the results for the wild type NMDAR agonists NMDAR2A, NMDAR2B, NMDAR2C, and NMDAR2D, and whether the compound is not an agonist (−), is an agonist (+), or is a strong agonist (++), where column A is based on the % maximal [^3H]MK-801 binding relative to 1 mM glycine (−=0; <100%=+; and >100%=++); and column B is based on log EC50 values (0=−; ≥1×10^−9M (e.g., −8)=+; and <1×10^−9M (e.g., −10)=++).

[2] = tested on: positive (hedonic) 50-kHz ultrasonic vocalizations (USVs); experiment: Positive emotional learning (PEL) test; assay type: in vivo, rats; details: rat, PO, dose .001-1 mg/kg, 1 h after administration
Method: Experiments were conducted as described in Burgdorf et al., “The effect of selective breeding for differential rates of 50-kHz ultrasonic vocalizations on emotional behavior in rats,” Devel. Psychobiol., 51:34-46 (2009). Rat 50-kHz ultrasonic vocalization (hedonic USVs) is a validated model for the study of positive affective state and is best elicited by rough-and-tumble play.
The PEL assay measures the acquisition of positive (hedonic) 50-kHz ultrasonic vocalizations (USVs) to a social stimulus, heterospecific rough and tumble play stimulation. Heterospecific rough-and-tumble play stimulation was administered by the experimenter's right hand. One hour after administration of test compound or vehicle negative control (0.5% sodium carboxymethyl cellulose in 0.9% sterile saline vehicle), animals received 3 min of heterospecific rough-and-tumble play that consisted of alternating 15 sec blocks of heterospecific play and 15 sec of no-stimulation. High frequency ultrasonic vocalizations (USVs) were recorded and analyzed by sonogram with Avasoft SASlab Pro (Germany) as previously described by Burgdorf et al., “Positive emotional learning is regulated in the medial prefrontal cortex by GluN2B-containing NMDA receptors,” Neuroscience, 192:515-523 (2011). Frequency modulated 50-kHz US V s that occurred during each of the no-stimulation periods were quantified to measure PEL. Animals were not habituated to play stimulation before testing. Positive emotional learning was measured during the conditioned stimulus (CS) trials preceding the tickle unconditioned stimulus (UCS) trials. Animals received 15 second trials consisting of 6 CS and 6 UCS trials each (3 min total).
The table below summarizes the findings. As each experiment includes its own vehicle group, an example (typical) vehicle score is shown. Max effect (mean number of 50 kHz USVs per 15 seconds) is reported as ∧: <6.0; *: 6.0-7.6; **: 7.7-10; ***: 10.1-20.

NMDAR2C = biological target: T2, NMDAR2C (Homo sapiens, UniProt Q14957); experiment: [3H]MK-801 binding, NMDAR2C expressing HEK cell membranes; assay type: biochemical; details: 50 μM glutamate
T2 construct: expressed in transfected cells; host or cells: HEK cells (membrane extract)
Method: as §1, §2, §3, §4

NMDAR2A = biological target: T3, NMDAR2A (Homo sapiens, UniProt Q12879); experiment: [3H]MK-801 binding, NMDAR2A expressing HEK cell membranes; assay type: biochemical; details: 50 μM glutamate
T3 construct: expressed in transfected cells; host or cells: HEK cells (membrane extract)
Outline: (§5)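 HEK membranes expressing NMDAR2A, 2B, 2C or 2D (300 μg protein) were preincubated 15 min at 25 °C with 50 μM glutamate and compound (1×10^−15–1×10^−7 M), then 15 min with 0.3 μCi [3H]MK-801 (nonequilibrium) before filtration. Baseline-subtracted binding was normalized to 1 mM glycine, yielding EC50 and % maximal activity.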

NMDAR2B = biological target: T4, NMDAR2B (Homo sapiens, UniProt Q13224); experiment: [3H]MK-801 binding, NMDAR2B expressing HEK cell membranes; assay type: biochemical; details: 50 μM glutamate
T4 construct: expressed in transfected cells; host or cells: HEK cells (membrane extract)
Outline: as §5

IV pharmacokinetics = assay type: in vivo, Sprague Dawley rats; details: rat, 2 mg/kg, normal saline (compounds marked * in 1% NMP and 99% normal saline)
Excerpt: The table below summarizes the results of the IV pharmacokinetics.

in vivo = details: Sprague Dawley, rat, po, 10 mg/kg
Method: as §6

[3] = Sprague Dawley, rat, in vivo, po, 10 mg/kg
Method: as §6

[4] = normal saline (compounds marked * in 1% NMP and 99% normal saline)

T3 sequence (Q12879 23-1464, species assumed, other chains not shown): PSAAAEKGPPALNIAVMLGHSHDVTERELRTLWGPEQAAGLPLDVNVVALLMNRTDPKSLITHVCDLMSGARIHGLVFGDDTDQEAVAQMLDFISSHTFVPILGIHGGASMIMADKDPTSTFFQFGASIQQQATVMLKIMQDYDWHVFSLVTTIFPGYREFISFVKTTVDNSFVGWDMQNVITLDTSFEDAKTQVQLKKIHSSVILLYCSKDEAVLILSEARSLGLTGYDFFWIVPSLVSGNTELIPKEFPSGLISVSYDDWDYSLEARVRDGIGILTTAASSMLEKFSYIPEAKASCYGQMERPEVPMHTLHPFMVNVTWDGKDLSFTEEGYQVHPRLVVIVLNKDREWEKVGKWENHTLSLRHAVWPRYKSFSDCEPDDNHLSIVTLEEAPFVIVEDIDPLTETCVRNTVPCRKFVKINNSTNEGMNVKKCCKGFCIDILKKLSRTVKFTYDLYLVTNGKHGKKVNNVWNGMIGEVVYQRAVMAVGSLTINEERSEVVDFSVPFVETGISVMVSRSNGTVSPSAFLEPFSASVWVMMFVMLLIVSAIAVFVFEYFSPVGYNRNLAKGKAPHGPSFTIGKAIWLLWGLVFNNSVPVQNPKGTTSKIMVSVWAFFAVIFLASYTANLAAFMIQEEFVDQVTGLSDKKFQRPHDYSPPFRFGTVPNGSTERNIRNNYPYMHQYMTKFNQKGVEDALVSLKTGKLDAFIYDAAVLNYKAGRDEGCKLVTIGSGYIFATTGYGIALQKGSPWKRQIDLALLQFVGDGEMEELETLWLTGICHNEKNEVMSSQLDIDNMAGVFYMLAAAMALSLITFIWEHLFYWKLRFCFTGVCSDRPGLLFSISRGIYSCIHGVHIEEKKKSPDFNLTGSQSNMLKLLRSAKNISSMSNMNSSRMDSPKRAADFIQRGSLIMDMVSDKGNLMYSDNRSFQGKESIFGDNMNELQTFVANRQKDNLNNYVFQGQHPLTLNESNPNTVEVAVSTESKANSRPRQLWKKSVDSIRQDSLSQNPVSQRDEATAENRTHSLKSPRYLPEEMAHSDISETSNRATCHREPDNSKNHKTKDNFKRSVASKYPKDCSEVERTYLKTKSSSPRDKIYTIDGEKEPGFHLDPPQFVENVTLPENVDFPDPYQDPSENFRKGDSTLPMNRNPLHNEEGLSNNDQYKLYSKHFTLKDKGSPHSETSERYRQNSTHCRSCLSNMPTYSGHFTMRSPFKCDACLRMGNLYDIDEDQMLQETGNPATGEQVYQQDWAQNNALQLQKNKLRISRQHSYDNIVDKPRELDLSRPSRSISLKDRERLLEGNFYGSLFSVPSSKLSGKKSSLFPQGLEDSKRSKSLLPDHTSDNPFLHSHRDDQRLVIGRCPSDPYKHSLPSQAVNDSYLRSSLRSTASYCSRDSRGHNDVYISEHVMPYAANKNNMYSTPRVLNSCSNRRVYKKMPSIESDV
T4 sequence (Q13224 27-1484, species assumed, other chains not shown): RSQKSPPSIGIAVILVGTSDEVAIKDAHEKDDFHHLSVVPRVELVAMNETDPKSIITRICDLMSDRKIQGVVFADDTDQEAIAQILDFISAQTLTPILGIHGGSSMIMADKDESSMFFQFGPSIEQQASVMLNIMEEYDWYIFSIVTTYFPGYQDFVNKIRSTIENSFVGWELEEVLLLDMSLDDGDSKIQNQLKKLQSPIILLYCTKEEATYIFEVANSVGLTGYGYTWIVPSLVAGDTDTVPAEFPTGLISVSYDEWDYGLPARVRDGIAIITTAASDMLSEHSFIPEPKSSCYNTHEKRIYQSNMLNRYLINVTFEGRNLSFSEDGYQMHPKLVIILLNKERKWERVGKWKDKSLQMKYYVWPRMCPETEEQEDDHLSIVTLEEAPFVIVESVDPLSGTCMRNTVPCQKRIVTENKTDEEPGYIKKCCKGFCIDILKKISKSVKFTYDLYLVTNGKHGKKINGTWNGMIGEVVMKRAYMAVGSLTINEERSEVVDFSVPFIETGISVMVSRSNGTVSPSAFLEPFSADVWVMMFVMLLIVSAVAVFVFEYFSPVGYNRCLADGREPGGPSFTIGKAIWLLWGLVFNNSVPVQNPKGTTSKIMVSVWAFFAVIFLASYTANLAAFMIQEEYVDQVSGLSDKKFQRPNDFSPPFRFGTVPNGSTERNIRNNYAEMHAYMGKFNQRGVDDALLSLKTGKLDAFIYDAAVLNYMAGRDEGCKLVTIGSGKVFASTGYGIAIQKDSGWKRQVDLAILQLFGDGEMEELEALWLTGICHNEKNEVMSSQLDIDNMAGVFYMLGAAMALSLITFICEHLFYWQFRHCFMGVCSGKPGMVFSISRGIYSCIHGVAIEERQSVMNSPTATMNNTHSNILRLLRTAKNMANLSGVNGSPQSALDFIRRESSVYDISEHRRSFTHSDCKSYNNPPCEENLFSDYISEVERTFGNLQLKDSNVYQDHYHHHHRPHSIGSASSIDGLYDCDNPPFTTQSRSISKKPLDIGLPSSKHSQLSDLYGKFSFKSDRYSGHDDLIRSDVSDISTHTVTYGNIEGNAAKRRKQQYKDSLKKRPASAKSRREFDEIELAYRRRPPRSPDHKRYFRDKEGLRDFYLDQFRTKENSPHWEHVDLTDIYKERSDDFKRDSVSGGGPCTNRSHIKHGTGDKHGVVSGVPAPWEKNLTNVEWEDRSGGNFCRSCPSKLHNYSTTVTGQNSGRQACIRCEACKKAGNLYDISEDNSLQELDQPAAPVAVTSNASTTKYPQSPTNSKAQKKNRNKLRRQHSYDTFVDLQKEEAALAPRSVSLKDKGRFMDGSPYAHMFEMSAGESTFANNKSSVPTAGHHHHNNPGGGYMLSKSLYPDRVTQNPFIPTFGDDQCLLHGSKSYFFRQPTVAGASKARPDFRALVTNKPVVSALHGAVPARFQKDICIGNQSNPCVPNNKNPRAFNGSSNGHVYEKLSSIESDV
T2 sequence (Q14957 20-1233, species assumed, other chains not shown): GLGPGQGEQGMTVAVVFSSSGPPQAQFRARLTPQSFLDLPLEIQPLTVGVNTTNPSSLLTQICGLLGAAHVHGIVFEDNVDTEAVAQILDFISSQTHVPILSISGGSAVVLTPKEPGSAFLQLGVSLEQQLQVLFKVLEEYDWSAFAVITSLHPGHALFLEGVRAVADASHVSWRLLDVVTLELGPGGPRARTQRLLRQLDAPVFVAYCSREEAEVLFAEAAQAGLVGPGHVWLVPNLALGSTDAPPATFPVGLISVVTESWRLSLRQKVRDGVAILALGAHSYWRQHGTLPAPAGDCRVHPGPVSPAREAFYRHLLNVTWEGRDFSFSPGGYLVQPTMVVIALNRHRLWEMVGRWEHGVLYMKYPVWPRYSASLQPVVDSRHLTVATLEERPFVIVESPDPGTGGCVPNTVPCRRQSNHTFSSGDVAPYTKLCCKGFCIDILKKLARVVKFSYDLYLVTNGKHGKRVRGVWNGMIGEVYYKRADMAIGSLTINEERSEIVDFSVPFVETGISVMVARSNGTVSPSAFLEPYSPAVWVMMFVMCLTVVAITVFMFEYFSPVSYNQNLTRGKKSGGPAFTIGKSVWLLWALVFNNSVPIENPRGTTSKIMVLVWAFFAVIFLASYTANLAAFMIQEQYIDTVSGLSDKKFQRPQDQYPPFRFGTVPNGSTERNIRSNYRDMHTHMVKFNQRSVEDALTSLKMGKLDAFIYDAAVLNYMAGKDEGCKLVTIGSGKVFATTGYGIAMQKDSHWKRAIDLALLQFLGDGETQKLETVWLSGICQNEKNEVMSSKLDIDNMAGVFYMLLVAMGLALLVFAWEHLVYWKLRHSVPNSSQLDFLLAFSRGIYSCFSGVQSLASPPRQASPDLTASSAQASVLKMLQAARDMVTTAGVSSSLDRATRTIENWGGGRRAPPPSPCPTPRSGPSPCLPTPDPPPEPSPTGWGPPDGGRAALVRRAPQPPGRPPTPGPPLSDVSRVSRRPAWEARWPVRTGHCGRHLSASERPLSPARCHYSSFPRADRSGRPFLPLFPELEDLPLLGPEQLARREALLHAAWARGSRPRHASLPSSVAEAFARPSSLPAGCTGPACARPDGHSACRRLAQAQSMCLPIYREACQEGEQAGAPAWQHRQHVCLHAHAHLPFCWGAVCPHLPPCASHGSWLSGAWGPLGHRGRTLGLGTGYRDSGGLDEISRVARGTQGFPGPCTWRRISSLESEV

CN1CCN(Cc2ccccc2)C2(CNC2=O)C1 (single isomer, unassigned) [EG-1, 5-Benzyl-8-Methyl-2,5,8-Triazaspiro[3.5]Nonan-1-One]
% F [1]: 14% | CSF Cmax ([1]; CSF): 367.18 ng/mL | Brain Cmax ([1]; brain): 334.3 ng/mL | AUClast [1, 4]: 428.79 ng·h/mL | Tmax [1, 4]: 0.25 h | Cmax ([1]; plasma, normal saline (compounds marked * in 1% NMP and 99% normal saline)): 700.4 ng/mL | NMDAR2D A: % maximal [3H]MK-801 binding relative to 1 mM glycine (NMDAR2D): − (−=0) | Max Effect (mean number of 50 kHz USVs per 15 seconds) [2]: *** (***: 10.1-20) | NMDAR2C A: % maximal [3H]MK-801 binding relative to 1 mM glycine (NMDAR2C): ++ (>100%=++) | EC50 (NMDAR2C; read-out: NMDAR2C B: log EC50 (converted)): > 1 nM | NMDAR2A A: % maximal [3H]MK-801 binding relative to 1 mM glycine (NMDAR2A): + (<100%=+) | EC50 (NMDAR2A; read-out: NMDAR2A B: log EC50 (converted)): < 1 nM | NMDAR2B A: % maximal [3H]MK-801 binding relative to 1 mM glycine (NMDAR2B): + (<100%=+) | EC50 (NMDAR2B; read-out: NMDAR2B B: log EC50 (converted)): < 1 nM | AUClast (IV pharmacokinetics): 622.05 ng·h/mL | C0 (IV pharmacokinetics): 2010.43 ng/mL | Cl (IV pharmacokinetics): 53.51 mL/min/kg | T1/2 (IV pharmacokinetics): 0.43 h | Vss (IV pharmacokinetics): 0.96 L/kg

C[C@@H](O)[C@H](N)C(=O)N1CCN(C)CC12CNC2=O (single isomer, unassigned) [EJ-1, 5-(L-Threonyl)-8-Methyl-2,5,8-Triazaspiro[3.5]Nonan-1-One]
AUC(0-t) (in vivo; AUClast): 568 ng·h/mL | Cmax (in vivo; Cmax): 186 ng/mL | Tmax (in vivo; Tmax): 0.75 h | AUC(0-t) (IV pharmacokinetics; Sprague Dawley, in vivo, iv): 3160 ng·h/mL | clearance (IV pharmacokinetics; Sprague Dawley, in vivo, iv): 10.5 mL/min/kg | half-life (IV pharmacokinetics; Sprague Dawley, in vivo, iv): 1.3 h | C0 (IV pharmacokinetics; Sprague Dawley, in vivo, iv, read-out: C0): 4030 ng/mL | Vss (IV pharmacokinetics): 0.62 L/kg | % F [3]: 4%

C[C@@H](O)[C@H](N)C(=O)N1CCN(C)CC12CNC2=O (single isomer, unassigned) [EJ-2, 5-(L-Threonyl)-8-Methyl-2,5,8-Triazaspiro[3.5]Nonan-1-One]
AUClast (IV pharmacokinetics): 1737 ng·h/mL | C0 (IV pharmacokinetics): 3415.56 ng/mL | Cl (IV pharmacokinetics): 18.95 mL/min/kg | T1/2 (IV pharmacokinetics): 1.59 h | Vss (IV pharmacokinetics): 1.35 L/kg | % F [3]: 9% | AUClast [3]: 811.97 ng·h/mL | Cmax [3]: 201.12 ng/mL | Tmax [3]: 1.33 h
